In US7902354B2, “Lapachone compounds and methods of use thereof” (ArQule, Inc., priority 2006, dated 2011):

Columns and labels:
[1] = system: NCM-460 normal colon epithelial cells; assay: MTS cell viability assay, NCM-460 normal colon epithelial cells; format: cell-based; settings: for IC50: Homo sapiens, NCM460, NCM-460, 4 h compound incubation, MTS, read-out: IC50 Values, Normal Cells, Colon NCM-460; for Fold Selectivity (NCM-460/DLD1): ratio of IC50 NCM-460 / DLD1
[2] = system: HT29 human colon cancer xenograft; assay: Colon cancer xenograft model (HT29) in athymic nude mice; format: in vivo
Procedure: Tumors were allowed to grow to approximately 70 mm^3 in size. Animals were randomized into two groups of eight animals per group. […] Drug or vehicle was administered every Monday, Wednesday and Friday for a total of nine doses (qMWFx3). Tumor size was evaluated periodically during the study. For each subject, tumor volume was calculated using the formula (L×W^2)/2 where L and W were the length and width of the tumor, respectively. The arithmetic mean tumor volume was calculated for each treatment group +/− standard error of the mean (SEM). […] Tumors were allowed to grow to approximately 90 mm^3 in size. Animals were randomized into three groups of eight animals per group. […] Drug or vehicle was administered every Monday, Wednesday and Friday for a total of nine doses (qMWFx3). Tumor size was evaluated periodically during the study. For each subject, tumor volume was calculated using the formula (L×W^2)/2 where L and W were the length and width of the tumor, respectively. The arithmetic mean tumor volume was calculated for each treatment group +/− standard error of the mean (SEM). […] Tumors were allowed to grow to approximately 60 mm^3 in size. Animals were randomized into two groups of eight animals per group. At day five post injection, mice with established tumors were treated intraperitoneally with either Compound 182 (40 mg/kg) or vehicle control. Drug or vehicle was administered every Monday, Wednesday and Friday for a total of nine doses (qMWFx3). Tumor size was evaluated periodically during the study. For each subject, tumor volume was calculated using the formula (L×W^2)/2 where L and W were the length and width of the tumor, respectively. The arithmetic mean tumor volume was calculated for each treatment group +/− standard error of the mean (SEM). […] Tumors were allowed to grow to approximately 50 mm^3 in size. Animals were randomized into three groups of five animals per group. At day eight post injection, mice with established tumors were treated intraperitoneally with either Compound 180 (40 mg/kg) or Compound 125 (40 mg/kg) and vehicle control. Drug or vehicle was administered every Monday, Wednesday and Friday for a total of twelve doses (qMWFx4). Tumor size was evaluated periodically during the study. For each subject, tumor volume was calculated using the formula (L×W^2)/2 where L and W were the length and width of the tumor, respectively. The arithmetic mean tumor volume was calculated for each treatment group +/−standard error of the mean (SEM).

[3] = system: K-562 human leukemia cells; assay: MTS cell viability assay, K-562 human leukemia cells; format: cell-based; settings: K562, K-562, 4 h compound incubation, MTS, read-out: IC50 Values, Cancerous Cells, Leukemia K-562
[4] = system: DLD-1 human colon carcinoma cells; assay: MTS cell viability assay, DLD-1 human colon carcinoma cells; format: cell-based; settings: DLD-1, 4 h compound incubation, MTS, read-out: IC50 Values, Cancerous Cells, Colon DLD-1
[5] = system: DU-145 human prostate carcinoma cells; assay: MTS cell viability assay, DU-145 human prostate carcinoma cells; format: cell-based; settings: DU-145, 4 h compound incubation, MTS, read-out: IC50 Values, Cancerous Cells, Prostate DU-145
[6] = system: HT-29 human colon carcinoma cells; assay: MTS cell viability assay, HT-29 human colon carcinoma cells; format: cell-based; settings: 4 h compound incubation, read-out: IC50 Values, Cancerous Cells, Colon HT-29
[7] = system: PACA-2 human pancreatic carcinoma cells; assay: MTS cell viability assay, PACA-2 human pancreatic carcinoma cells; format: cell-based; settings: PACA-2, 4 h compound incubation, MTS, read-out: IC50 Values, Cancerous Cells, Pancreas PACA-2
[8] = system: A549 human lung carcinoma cells; assay: MTS cell viability assay, A549 human lung carcinoma cells; format: cell-based; settings: A549, 4 h compound incubation, MTS, read-out: IC50 Values, Cancerous Cells, Lung A549
E2F-1 = E2F-1 induction in HT-29 cells; format: cell-based, human
Text: Another effect of the compounds of the present invention is the induction or elevation of activity (e.g. elevation of the level) of one or more checkpoint molecules (i.e., a member of the E2F family of transcription factors). Studies have shown that β-lapachone induces activation of E2F1 checkpoint pathway in nuclei of cancer cells but not in normal cells, resulting in the arrest of cancer cells in G1 and/or S phase. Several compounds of the present invention were effective in activating the E2F1 checkpoint pathway (e.g. elevation of E2F1 levels), thus causing G1 and/or S phase arrest. Furthermore, the compounds of the present invention have no significant toxic effects on normal cells (See. Table 1). The assays of the present invention as shown in Table 1 and methods of measuring induction of E2F1 activity and elevation of E2F1 levels can be carried out following the descriptions found in Li et al., (2003) Proc Natl Acad Sci USA. 100(5): 2674-8 and U.S. Patent Application Publication No. 2002/0169135, both incorporated herein by reference.

[9] = system: normal fresh or proliferating human PBMC; settings: cited from earlier work
human cancer cell lines = settings: single agent; read-out: antineoplastic activity against human cancer cell lines (IC50); cited from earlier work
[10] = 32 mg/kg intraperitoneally qMWFx3, HT29 xenograft
[11] = 40 mg/kg intraperitoneally qMWFx3, HT29 xenograft
[12] = 48 mg/kg intraperitoneally qMWFx3, HT29 xenograft
[13] = 40 mg/kg intraperitoneally qMWFx4, HT29 xenograft

SMILES | IC50 [1] | Fold Selectivity (NCM-460/DLD1) [1] | % T/C [2, 10] | reduction of mean tumor volume compared to vehicle treated control [2, 10] | IC50 [3] | IC50 [4] | IC50 [5] | IC50 [6] | IC50 [7] | IC50 [8] | E2F-1 Induction (HT-29) (E2F-1) | % T/C [2, 11] | reduction of mean tumor volume compared to vehicle treated control [2, 11] | Opt. % T/C [2, 12] | reduction of mean tumor volume compared to vehicle treated control [2, 12] | cytotoxic effects on normal fresh or proliferating human PBMC [9] | IC50 (human cancer cell lines) | % T/C [2, 13] | reduction of mean tumor volume compared to vehicle treated control [2, 13]
O=C1C(=O)c2ccccc2C2=C1SCC1(CCN(C[C@H](O)Cc3ccccc3)CC1)O2 [Compound 186, 1′-[(2R)-2-hydroxy-3-phenylpropyl]spiro[naphtho[1,2-b][1,4]oxathiine-2,4′-piperidine]-5,6-dione] | 6800 nM | 4.7 | 50% | 50% | 2300 nM | 1500 nM | 2100 nM | 6500 nM | 1500 nM | 5500 nM | YES |  |  |  |  |  |  |  | 
O=C1C(=O)c2ccccc2C2=C1SCC1(CCN(C[C@H](O)COc3ccc(Cl)cc3)CC1)O2 [Compound 182, 1′-[(2S)-3-(4-chlorophenoxy)-2-hydroxypropyl]spiro[naphtho[1,2-b][1,4]oxathiine-2,4′-piperidine]-5,6-dione] | 11200 nM | 8.6 |  |  | 3250 nM | 1300 nM | 1280 nM | 2070 nM | 1330 nM | 6450 nM | Yes | 44.8% | 55.2% |  |  |  |  |  | 
O=C1C(=O)c2ccccc2C2=C1SCC1(CCN(C[C@@H](O)Cc3ccccc3)CC1)O2 [Compound 187, 1′-[(2S)-2-hydroxy-3-phenylpropyl]spiro[naphtho[1,2-b][1,4]oxathiine-2,4′-piperidine]-5,6-dione] | 8100 nM |  |  |  | 2700 nM | 2100 nM | 3000 nM | 5500 nM | 1900 nM | 5100 nM | YES |  |  | 38% | 62% |  |  |  | 
CC1(C)CCC2=C(O1)c1ccccc1C(=O)C2=O [β-lapachone, 3,4-dihydro-2,2-dimethyl-2H-naphtho[1,2-b]pyran-5,6-dione] |  |  |  |  |  |  |  |  |  |  |  |  |  |  |  | No cytotoxic effects | 1000 to 10000 nM |  | 
O=C1C(=O)c2ccccc2C2=C1SCC1(CCN(C[C@H](O)COc3ccc(F)cc3)CC1)O2 [Compound 180, 1′-[(2S)-3-(4-fluorophenoxy)-2-hydroxypropyl]spiro[naphtho[1,2-b][1,4]oxathiine-2,4′-piperidine]-5,6-dione] | 3570 nM | 5.0 |  |  | 1460 nM | 708 nM | 1480 nM | 2200 nM | 958 nM | 3530 nM | Yes |  |  |  |  |  |  | 58.3% | 41.7%
O=C1C(=O)c2ccccc2C2=C1SCC1(CCN(Cc3ccc(F)cc3)CC1)O2 [Compound 125, 1′-(4-fluorobenzyl)spiro[naphtho[1,2-b][1,4]oxathiine-2,4′-piperidine]-5,6-dione] | 9750 nM | 5.7 |  |  | 3740 nM | 1710 nM | 5060 nM | 4950 nM | 2500 nM | 9570 nM | Yes |  |  |  |  |  |  | 46.2% | 57.8%
CC(C)(C)c1ccc(OC[C@@H](O)CN2CCC3(CC2)CSC2=C(O3)c3ccccc3C(=O)C2=O)cc1 [Compound 184, 1′-[(2S)-3-(4-tert-butylphenoxy)-2-hydroxypropyl]spiro[naphtho[1,2-b][1,4]oxathiine-2,4′-piperidine]-5,6-dione] | 27800 nM | 10.8 | 29.8% | 70.2% | 5340 nM | 2580 nM | 1650 nM | 3670 nM | 1710 nM | 5850 nM | Yes |  |  |  |  |  |  |  | 
